Assay results from patent US8022061B2, “N-aryl pyrazole compounds, compositions, and methods for their use” (Amgen Inc., priority 2006, dated 2011).

What was measured:
[1] = system: C57B6 mice; assay: Glucose lowering effect after oral glucose challenge in C57B6 mice; type: in vivo; details: male C57B6 mice, p.o. 30 minutes before oral glucose 3 g/kg; blood glucose before, 20 and 50 minutes after challenge; relative to control group
Experimental: The following example describes the glucose lowering effect of compounds observed in vivo.
Male C57B6 mice were placed into control and treatment groups having similar averages of body weights. Then, animals were dosed with vehicle (control group) or test article (5 ml/kg, p.o.). Thirty minutes after dosing, glucose (3 g/kg) was orally administered in each animal. Blood samples were collected just before, 20 minutes and 50 minutes after glucose challenge and glucose concentrations in the samples was assessed. The values in Table 2 represent the observed % AUC reduction of blood glucose in the treated animals relative to the control group.

[2] = system: ob/ob mice; assay: Increase of circulating insulin concentrations in treated ob/ob mice; type: in vivo; details: male ob/ob mice, 10 minutes after dosing, relative to control group
Experimental: The results presented below exemplify that administration of the compounds as provided herein to an art-recognized animal model of human diabetes can lead to increased circulating insulin concentrations in the animal model.
Male ob/ob mice were weighed and bled from tail vein, and blood glucose levels were determined with a glucometer. Animals were placed into control and treatment groups having similar averages of glucose levels and body weights. In the morning of the following day, animals were dosed with vehicle (control group) or test article (5 ml/kg, p.o.). Blood samples were collected just before and 10 minutes after dosing, and the samples were assayed for insulin and glucose concentrations.
Table 1 provides exemplary data showing the increase of circulating insulin concentrations (expressed as ng/ml) in treated mice relative to control group at 10 minutes after dosing the treated mice. Concentrations of the exemplary compound tested in the mice are provided in the righthand column.

SMILES | % AUC reduction in glucose levels [1] [%] | Increase in Insulin ([2]; dose 10 mg/kg p.o.) [ng/mL] | further results
CCOCc1c(C(=O)NCc2c(CO)ncn2C)cnn1-c1ncc(C)c(N2CCc3ccccc3C2)n1 [1-[4-(3,4-Dihydroisoquinolin-2(1H)-yl)-5-methylpyrimidin-2-yl]-5-(ethoxymethyl)-N-{[4-(hydroxymethyl)-1-methyl-1H-imidazol-5-yl]methyl}-1H-pyrazole-4-carboxamide] | 63 |  | 
COCc1c(C(=O)NCc2c(CO)ncn2C)cnn1-c1ncc(C)c(-c2ccoc2)n1 [1-[4-(3-Furyl)-5-methylpyrimidin-2-yl]-N-[{4-(hydroxymethyl)-1-methyl-1H-imidazol-5-yl]methyl}-5-(methoxymethyl)-1H-pyrazole-4-carboxamide] | 29 |  | 
CCCc1c(C(=O)NCc2c(CO)ncn2C)cnn1-c1ncc(C)c(-c2ccoc2)n1 [1-[4-(3-Furyl)-5-methylpyrimidin-2-yl]-N-{[4-(hydroxymethyl)-1-methyl-1H-imidazol-5-yl]methyl}-5-propyl-1H-pyrazole-4-carboxamide] | 19 |  | 
CCOCc1c(C(=O)NCc2cncn2C)cnn1-c1ncc(C)c(NC2CCCCC2)n1 [1-[4-(Cyclohexylamino)-5-methylpyrimidin-2-yl]-5-(ethoxymethyl)-N-[(1-methyl-1H-imidazol-5-yl)methyl]-1H-pyrazole-4-carboxamide] | 42 |  | 
CCOCc1c(C(=O)NCc2c(CO)ncn2C)cnn1-c1ncc(Cl)c(-c2cccs2)n1 [1-[5-Chloro-4-(2-thienyl)pyrimidin-2-yl]-5-(ethoxymethyl)-N-{[4-(hydroxymethyl)-1-methyl-1H-imidazol-5-yl]methyl}-1H-pyrazole-4-carboxamide] | 41 |  | 
CCCCc1c(C(=O)NCc2c(C)ncn2C(C)(C)C(=O)O)cnn1-c1ncc(C)c(-c2cccs2)n1 [2-(5-{[({5-Butyl-1-[5-methyl-4-(2-thienyl)pyrimidin-2-yl]-1H-pyrazol-4-yl}carbonyl)amino]methyl}-4-methyl-1H-imidazol-1-yl)-2-methylpropanoic acid] | 15 |  | 
COCCc1c(C(=O)NCc2cncn2C)cnn1-c1ncc(C)c(-c2cccs2)n1 [5-(2-Methoxyethyl)-N-[(1-methyl-1H-imidazol-5-yl)methyl]-1-[5-methyl-4-(2-thienyl)pyrimidin-2-yl]-1H-pyrazole-4-carboxamide] | 25 |  | 
CCOCc1c(C(=O)NCc2cncn2C)cnn1-c1ncc(C)c(-c2ccco2)n1 [5-(Ethoxymethyl)-1-[4-(2-furyl)-5-methylpyrimidin-2-yl]-N-[(1-methyl-1H-imidazol-5-yl)methyl]-1H-pyrazole-4-carboxamide] | 51 |  | 
CCOCc1c(C(=O)NCc2cncn2C)cnn1-c1ncc(C)c(N2CCCCC2)n1 [5-(Ethoxymethyl)-N-((1-methyl-1H-imidazol-5-yl)methyl)-1-(5-methyl-4-(piperidin-1-yl)pyrimidin-2-yl)-1H-pyrazole-4-carboxamide] | 42 |  | 
CCOCc1c(C(=O)NCc2cncn2C)cnn1-c1ncc(C)c(-c2cccs2)n1 [5-(Ethoxymethyl)-N-((1-methyl-1H-imidazol-5-yl)methyl)-1-(5-methyl-4-(thiophen-2-yl)pyrimidin-2-yl)-1H-pyrazole-4-carboxamide] | 16 |  | 
CCOCc1c(C(=O)NCc2cncn2C)cnn1-c1ncc(C)c(-c2ccccc2)n1 [5-(Ethoxymethyl)-N-[(1-methyl-1H-imidazol-5-yl)methyl]-1-(5-methyl-4-phenylpyrimidin-2-yl)-1H-pyrazole-4-carboxamide] | 35 |  | 
CCOCc1c(C(=O)NCc2cncn2C)cnn1-c1ncc(C)c(N2CCCC2)n1 [5-(Ethoxymethyl)-N-[(1-methyl-1H-imidazol-5-yl)methyl]-1-(5-methyl-4-pyrrolidin-1-ylpyrimidin-2-yl)-1H-pyrazole-4-carboxamide] | 18 |  | 
CCOCc1c(C(=O)NCc2cncn2C)cnn1-c1ncc(C)c(-c2nccs2)n1 [5-(Ethoxymethyl)-N-[(1-methyl-1H-imidazol-5-yl)methyl]-1-[5-methyl-4-(1,3-thiazol-2-yl)pyrimidin-2-yl]-1H-pyrazole-4-carboxamide] | 41 |  | 
CCOCc1c(C(=O)NCc2cncn2C)cnn1-c1ncc(C)c(N2CC(F)(F)C(F)(F)C2)n1 [5-(Ethoxymethyl)-N-[(1-methyl-1H-imidazol-5-yl)methyl]-1-[5-methyl-4-(3,3,4,4-tetrafluoropyrrolidin-1-yl)pyrimidin-2-yl]-1H-pyrazole-4-carboxamide] | 11 |  | 
CCCCc1c(C(=O)NCc2c(C)ncn2CC(=O)NC)cnn1-c1ncc(C)c(-c2cccs2)n1 [5-Butyl-N-({4-methyl-1-[2-(methylamino)-2-oxoethyl]-1H-imidazol-5-yl}methyl)-1-[5-methyl-4-(2-thienyl)pyrimidin-2-yl]-1H-pyrazole-4-carboxamide] |  | 9 | 
CCCCc1c(C(=O)NC(C)c2cncn2C)cnn1-c1ncc(C)c(-c2cccs2)n1 (centres unmarked) [5-Butyl-N-[1-(1-methyl-1H-imidazol-5-yl)ethyl]-1-[5-methyl-4-(2-thienyl)pyrimidin-2-yl]-1H-pyrazole-4-carboxamide] |  | 6.4 | 
CCCCc1c(C(=O)NCCn2ccnc2)cnn1-c1ncc(C)c(-c2cccs2)n1 [5-Butyl-N-[2-(1H-imidazol-1-yl)ethyl]-1-[5-methyl-4-(2-thienyl)pyrimidin-2-yl]-1H-pyrazole-4-carboxamide] |  | 2.9 | 
CCCCc1c(C(=O)NC(CO)c2cncn2C)cnn1-c1ncc(C)c(-c2cccs2)n1 (centres unmarked) [5-Butyl-N-[2-hydroxy-1-(1-methyl-1H-imidazol-5-yl)ethyl]-1-[5-methyl-4-(2-thienyl)pyrimidin-2-yl]-1H-pyrazole-4-carboxamide] |  | 5.2 | 
CCCCc1c(C(=O)NCc2c(C)ncn2CC(=O)O)cnn1-c1ncc(Br)c(NC2CCC2)n1 [(5-{[({1-[5-Bromo-4-(cyclobutylamino)pyrimidin-2-yl]-5-butyl-1H-pyrazol-4-yl}carbonyl)amino]methyl}-4-methyl-1H-imidazol-1-yl)acetic acid] |  | 1.7 | 
CCCCc1c(C(=O)NCc2cncn2CC(=O)O)cnn1-c1ncc(C)c(-c2cccs2)n1 [(5-{[({5-Butyl-1-[5-methyl-4-(2-thienyl)pyrimidin-2-yl]-1H-pyrazol-4-yl}carbonyl)amino]methyl}-1H-imidazol-1-yl)acetic acid] |  | 3.8 | 
CCCCc1c(C(=O)NCCn2cncc2C(=O)OC)cnn1-c1ncc(C)c(-c2cccs2)n1 [Methyl 1-{2-[({5-butyl-1-[5-methyl-4-(2-thienyl)pyrimidin-2-yl]-1H-pyrazol-4-yl}carbonyl)amino]ethyl}-1H-imidazole-5-carboxylate] |  | 6.6 | 
CCCCc1c(C(=O)NCc2cncn2CC(=O)OC)cnn1-c1ncc(C)c(-c2cccs2)n1 [Methyl (5-{[({5-butyl-1-[5-methyl-4-(2-thienyl)pyrimidin-2-yl]-1H-pyrazol-4-yl}carbonyl)amino]methyl}-1H-imidazol-1-yl)acetate] |  | 4.3 | 
CCCCc1c(C(=O)Nc2cccc3nc[nH]c23)cnn1-c1ncc(C)c(-c2cccs2)n1 [N-1H-Benzimidazol-7-yl-5-butyl-1-[5-methyl-4-(2-thienyl)pyrimidin-2-yl]-1H-pyrazole-4-carboxamide] |  | 0.9 | 
COCc1c(C(=O)NCc2cnc3ccccn23)cnn1-c1ncc(C)c(-c2cccs2)n1 [N-(Imidazo[1,2-a]pyridin-3-ylmethyl)-5-(methoxymethyl)-1-[5-methyl-4-(2-thienyl)pyrimidin-2-yl]-1H-pyrazole-4-carboxamide] |  | 4.4 | 
CCCCc1c(C(=O)N[C@@H](Cc2c[nH]cn2)C(=O)O)cnn1-c1ncc(C)c(-c2cccs2)n1 [N-({5-Butyl-1-[5-methyl-4-(2-thienyl)pyrimidin-2-yl]-1H-pyrazol-4-yl}carbonyl)-L-histidine] |  | 4.5 | 
CCCc1c(C(=O)NCCc2cncn2C)cnn1-c1ncc(C)c(-c2cccs2)n1 [N-[2-(1-Methyl-1H-imidazol-5-yl)ethyl]-1-[5-methyl-4-(2-thienyl)pyrimidin-2-yl]-5-propyl-1H-pyrazole-4-carboxamide] |  | 9.5 | 
CCCc1c(C(=O)NC(CO)c2cncn2C)cnn1-c1ncc(C)c(-c2cccs2)n1 (centres unmarked) [N-[2-Hydroxy-1-(1-methyl-1H-imidazol-5-yl)ethyl]-1-[5-methyl-4-(2-thienyl)pyrimidin-2-yl]-5-propyl-1H-pyrazole-4-carboxamide] |  | 3.1 | 
CCCc1c(C(=O)NCc2cncn2C)cnn1-c1ncc(C)c(-c2cccs2)n1 [N-[(1-Methyl-1H-imidazol-5-yl)methyl]-1-[5-methyl-4-(2-thienyl)pyrimidin-2-yl]-5-propyl-1H-pyrazole-4-carboxamide] |  |  | Increase in Insulin ([2]; dose 30 mg/kg p.o.): 28.5 ng/mL
CCCCc1c(C(=O)NCc2c(C)ncn2CC(N)=O)cnn1-c1ncc(C)c(-c2cccs2)n1 [N-{[1-(2-Amino-2-oxoethyl)-4-methyl-1H-imidazol-5-yl]methyl}-5-butyl-1-[5-methyl-4-(2-thienyl)pyrimidin-2-yl]-1H-pyrazole-4-carboxamide] |  | 4 | 
